Data on one compound can be found in PMC12494798, “Anle138b binds predominantly to the central cavity in lipidic Aβ₄₀ fibrils and modulates fibril formation” (Nature Communications, 2025).

The experiment has as its target T1, Aβ₄₀ (L1 lipidic Aβ₄₀ fibril, amyloid beta 1-40) (Homo sapiens, UniProt P05067).
T1 construct: gene APP; Aβ(1-40), type 1 lipidic (L1) fibril of two protofilaments
In words: ITC on preformed L1 fibrils; supported by DNP-enhanced NHHC ssNMR contacts, (H)CANH titration and cryo-EM density. Type of experiment: binding.

T1 sequence (P05067 672-711): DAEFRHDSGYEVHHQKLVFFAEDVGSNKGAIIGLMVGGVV

On to `Brc1cccc(-c2cc(-c3ccc4c(c3)OCO4)n[nH]2)c1` [anle138b, 3-(1,3-benzodioxol-5-yl)−5-(3-bromophenyl)−1H-pyrazole], for which the Kd was 640 nM.

Usually Kd stands for a measure of binding affinity in units of concentration.
